Assay results taken from patent US11713307B2, “Heteroaryl-biphenyl amides for the treatment of PD-L1 diseases” (CHEMOCENTRYX, INC., priority 2019, dated 2023).

target: human PD-L1 (Homo sapiens (Human), UniProt Q9NZQ7); assay: Enzyme-Linked Immunosorbent Assay—ELISA (PD-1/PD-L1 binding); conditions: plates coated with human PD-L1; Human PD-1 and biotin added; absorbance at 450 nm
Description: 96 Well plates were coated with 1 μg/mL of human PD-L1 (obtained from R&D) in PBS overnight at 4° C. The wells were then blocked with 2% BSA in PBS (W/V) with 0.05% TWEEN-20 for 1 hour at 37° C. The plates were washed 3 times with PBS/0.05% TWEEN-20 and the compounds were serial diluted (1:5) in dilution medium and added to the ELISA plates. Human PD-1 and biotin 0.3 μg/mL (ACRO Biosystems) were added and incubated for 1 hour at 37° C. then washed 3 times with PBS/0.05% TWEEN-20. A second block was performed with 2% BSA in PBS (W/V)/0.05% TWEEN-20 for 10 min at 37° C. and the plates were washed 3 times with PBS/0.05% TWEEN-20. Streptavidin-HRP was added for 1 hour at 37° C. then the plates were washed 3 times with PBS/0.05% TWEEN-20. TMB substrate was added and reacted for 20 min at 37° C. A stop solution (2 N aqueous H2SO4) was added. The absorbance was read at 450 nm using a micro-plate spectrophotometer. The results are shown in Table 1: IC50 values are provided as follows: from 1000 to 10,000 nM (+); from 10 up to 1000 nM (++); less than 10 nM (+++).

Chain of human PD-L1 (Q9NZQ7 19-239): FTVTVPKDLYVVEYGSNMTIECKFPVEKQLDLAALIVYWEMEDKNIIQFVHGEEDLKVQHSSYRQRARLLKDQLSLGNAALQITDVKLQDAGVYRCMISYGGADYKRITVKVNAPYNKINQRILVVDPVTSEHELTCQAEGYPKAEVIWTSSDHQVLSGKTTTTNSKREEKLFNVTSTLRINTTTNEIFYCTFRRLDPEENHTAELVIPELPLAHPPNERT

| SMILES | IC50 [nM] |
| --- | --- |
| CCc1nc(-c2cccc(-c3cccc(NC(=O)c4cn(C)c(=O)n(C)c4=O)c3Cl)c2Cl)ccc1CN[C@@H]1CCOC[C@@H]1O [Compound 1.075] | < 10 |
| COc1nc(-c2cccc(-c3cccc(NC(=O)c4cn(C)c(=O)n(C)c4=O)c3Cl)c2Cl)ccc1CNCCCO [Compound 1.036] | < 10 |
| COc1cc(-c2cccc(-c3cccc(NC(=O)c4cn(C)c(=O)n(C)c4=O)c3Cl)c2Cl)ncc1CN1CC(C)(C(=O)O)C1 [Compound 1.083] | < 10 |
| COc1nc(-c2cccc(-c3cccc(NC(=O)c4cn(C)c(=O)n(C)c4=O)c3Cl)c2Cl)cnc1CNC[C@@H]1CCC(=O)N1 [Compound 1.003] | < 10 |
| COc1nc(-c2cccc(-c3cccc(NC(=O)c4cn(C)c(=O)n(C)c4=O)c3Cl)c2Cl)ccc1CN1CC(NS(C)(=O)=O)C1 [Compound 1.073] | < 10 |
| COc1nc(-c2cccc(-c3cccc(NC(=O)c4cn(C)c(=O)n(C)c4=O)c3Cl)c2Cl)ccc1CN1CC(O)C1 [Compound 1.090] | < 10 |
| CCc1nc(-c2cccc(-c3cccc(NC(=O)c4cn(C)c(=O)n(C)c4=O)c3Cl)c2Cl)ccc1CN1CC(O)C1 [Compound 1.072] | 10 to 1000 |
| COc1nc(-c2cccc(-c3cccc(NC(=O)c4cn(C)c(=O)n(C)c4=O)c3C)c2Cl)ccc1CN1CC(C(=O)O)C1 [Compound 1.082] | < 10 |
| COc1nc(-c2cccc(-c3cccc(NC(=O)c4cn(C)c(=O)n(C)c4=O)c3Cl)c2Cl)ccc1CNC[C@@H](O)CO [Compound 1.030] | < 10 |
| COc1nc(-c2cccc(-c3cccc(NC(=O)c4cn(C)c(=O)n(C)c4=O)c3C)c2Cl)ccc1CNC[C@@H]1CCC(=O)N1C [Compound 1.043] | < 10 |
| CCOc1nc(-c2cccc(-c3cccc(NC(=O)c4cn(C)c(=O)n(C)c4=O)c3C)c2Cl)ccc1CNC[C@@H]1CCC(=O)N1 [Compound 1.047] | < 10 |
| COc1nc(-c2cccc(-c3cccc(NC(=O)c4cn(C)c(=O)n(C)c4=O)c3C)c2Cl)ccc1CN1CC(C)(O)C1 [Compound 1.038] | < 10 |
| COc1nc(-c2cccc(-c3cccc(NC(=O)c4cn(C)c(=O)n(C)c4=O)c3Cl)c2Cl)cnc1CN1CC(O)C1 [Compound 1.098] | < 10 |
| COc1nc(-c2cccc(-c3cccc(NC(=O)c4cn(C)c(=O)n(C)c4=O)c3C)c2Cl)cnc1CNC[C@@H]1CCC(=O)N1 [Compound 1.079] | < 10 |
| COc1nc(-c2cccc(-c3cccc(NC(=O)c4cn(C)c(=O)n(C)c4=O)c3C)c2F)ccc1CN[C@@H]1CCOC[C@@H]1O [Compound 1.024] | < 10 |
| COc1nc(-c2cccc(-c3cccc(NC(=O)c4cn(C)c(=O)n(C)c4=O)c3C)c2Cl)ccc1CNCC(=O)O [Compound 1.051] | < 10 |
| CCc1nc(-c2cccc(-c3cccc(NC(=O)c4cn(C)c(=O)n(C)c4=O)c3Cl)c2Cl)cnc1CNC[C@@H]1CCC(=O)N1 [Compound 1.077] | < 10 |
| COc1nc(-c2cccc(-c3cccc(NC(=O)c4cn(C)c(=O)n(C)c4=O)c3Cl)c2Cl)ccc1CNCC1(O)CC1 [Compound 1.035] | < 10 |
| COc1nc(-c2cccc(-c3cccc(NC(=O)c4cn(C)c(=O)n(C)c4=O)c3C)c2Cl)ccc1CN1CC2(CNC(=O)N2)C1 [Compound 1.025] | < 10 |

Next, values leading:

| IC50 [nM] | SMILES |
| --- | --- |
| < 10 | COc1nc(-c2cccc(-c3cccc(NC(=O)c4cn(C)c(=O)n(C)c4=O)c3Cl)c2Cl)ccc1CNCCO [Compound 1.039] |
| < 10 | CNCc1ccc(-c2cccc(-c3cccc(NC(=O)c4cn(C)c(=O)n(C)c4=O)c3C)c2Cl)nc1OC [Compound 1.031] |
| < 10 | COc1nc(-c2cccc(-c3cccc(NC(=O)c4cn(C)c(=O)n(C)c4=O)c3C)c2Cl)ccc1CN[C@H]1CCOC[C@@H]1O [Compound 1.013] |
| < 10 | COc1nc(-c2cccc(-c3cccc(NC(=O)c4cn(C)c(=O)n(C)c4=O)c3C)c2Cl)ccc1CNCCC(C)(C)O [Compound 1.023] |
| < 10 | COc1nc(-c2cccc(-c3cccc(NC(=O)c4cn(C)c(=O)n(C)c4=O)c3C)c2Cl)ccc1CN[C@@H]1CCCC[C@@H]1O [Compound 1.017] |
| < 10 | COc1nc(-c2cccc(-c3cccc(NC(=O)c4cn(C)c(=O)n(C)c4=O)c3C)c2Cl)ccc1CNCCO [Compound 1.056] |
| < 10 | COc1nc(-c2cccc(-c3cccc(NC(=O)c4cn(C)c(=O)n(C)c4=O)c3C)c2Cl)ccc1CN(C)CCO [Compound 1.052] |
| < 10 | COc1nc(-c2cccc(-c3cccc(NC(=O)c4cn(C)c(=O)n(C)c4=O)c3C)c2Cl)ccc1CN[C@@H]1CNC(=O)C1 [Compound 1.007] |
| < 10 | COc1nc(-c2cccc(-c3cccc(NC(=O)c4cn(C)c(=O)n(C)c4=O)c3Cl)c2F)ccc1CNC[C@@H]1CCC(=O)N1 [Compound 1.063] |
| < 10 | COc1nc(-c2cccc(-c3cccc(NC(=O)c4cn(C)c(=O)n(C)c4=O)c3F)c2Cl)ccc1CNC[C@@H]1CCC(=O)N1 [Compound 1.059] |
| < 10 | COc1nc(-c2cccc(-c3cccc(NC(=O)c4cn(C)c(=O)n(C)c4=O)c3Cl)c2Cl)ccc1CNC[C@@H]1CCC(=O)N1 [Compound 1.088] |
| 10 to 1000 | COc1cc(-c2cccc(-c3cccc(NC(=O)c4cn(C)c(=O)n(C)c4=O)c3Cl)c2Cl)ncc1CN1CC(O)C1 [Compound 1.080] |
| < 10 | COc1nc(-c2cccc(-c3cccc(NC(=O)c4cn(C)c(=O)n(C)c4=O)c3Cl)c2Cl)ccc1CN1CC(C)(C(=O)O)C1 [Compound 1.085] |
| < 10 | COc1nc(-c2cccc(-c3cccc(NC(=O)c4cn(C)c(=O)n(C)c4=O)c3Cl)c2Cl)ccc1CN[C@@H]1CCOC[C@@H]1O [Compound 1.087] |
| < 10 | COc1nc(-c2cccc(-c3cccc(NC(=O)c4cn(C)c(=O)n(C)c4=O)c3C)c2Cl)ccc1CN1CC(C)(C(=O)O)C1 [Compound 1.053] |
| < 10 | COc1nc(-c2cccc(-c3cccc(NC(=O)c4cn(C)c(=O)n(C)c4=O)c3Cl)c2Cl)cnc1CN1CC2(CCNC2=O)C1 [Compound 1.102] |
| < 10 | COc1nc(-c2cccc(-c3cccc(NC(=O)c4cn(C)c(=O)n(C)c4=O)c3C)c2Cl)ccc1CN[C@H]1CCOC[C@H]1O [Compound 1.042] |
| < 10 | COc1nc(-c2cccc(-c3cccc(NC(=O)c4cn(C)c(=O)n(C)c4=O)c3Cl)c2Cl)cnc1CN1CC2(CCC(=O)N2)C1 [Compound 1.101] |
| < 10 | CCc1nc(-c2cccc(-c3cccc(NC(=O)c4cn(C)c(=O)n(C)c4=O)c3C)c2Cl)ccc1CNC[C@@H]1CCC(=O)N1 [Compound 1.054] |
| < 10 | COc1nc(-c2cccc(-c3cccc(NC(=O)c4cn(C)c(=O)n(C)c4=O)c3Cl)c2Cl)ncc1CNC[C@@H]1CCC(=O)N1 [Compound 1.081] |
| < 10 | COc1nc(-c2cccc(-c3cccc(NC(=O)c4cn(C)c(=O)n(C)c4=O)c3C)c2Cl)ccc1CNC(C)C [Compound 1.037] |
| 10 to 1000 | Cn1cc(C(=O)Nc2cccc(-c3cccc(-c4ccc(CNC[C@@H]5CCC(=O)N5)c(O)n4)c3Cl)c2Cl)c(=O)n(C)c1=O [Compound 1.033] |
| < 10 | COc1nc(-c2cccc(-c3cccc(NC(=O)c4cn(C)c(=O)n(C)c4=O)c3Cl)c2)ccc1CNC[C@@H]1CCC(=O)N1 [Compound 1.067] |
| < 10 | COc1nc(-c2cccc(-c3cccc(NC(=O)c4cn(C)c(=O)n(C)c4=O)c3Cl)c2Cl)cnc1CN1CC(C)(C(=O)O)C1 [Compound 1.099] |
